Test systems include A498 renal; A549 NSCLC; COLO 205 colon; HCT-15 colon; HT29 colon; KM20L2 colon; M14 melanoma; MOLT-4 leukemia; NCI-H23 lung; NCI-H460 lung; OVCAR-4 ovarian; OVCAR-5 ovarian; SF-268 CNS; SF-295 CNS; SK-MEL-2 melanoma; SK-MEL-5 melanoma; SK-OV-3 ovarian; SN12C renal; U251 CNS; UO-31 renal.
Assay in all cases: NCI tumour cell line growth inhibition, 48 h

The structures appear in SMILES notation.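 Results reflect a 48-hour exposure of cells in 96-well plates to compound at five concentrations. TGI marks complete inhibition of growth.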

For the compound `COc1cccc(NC(=O)C(=O)C(C(=O)c2ccccc2F)C2OC(=O)c3ccccc32)c1` (stereo not drawn), the TGI in the assay with A498 renal was greater than 100 µM; with A549 NSCLC, greater than 100 µM; with COLO 205 colon it was 39.5 µM; in the assay with HCT-15 colon, greater than 100 µM; in the assay with HT29 colon, greater than 100 µM; with KM20L2 colon, greater than 100 µM. Moreover, the TGI is greater than 100 µM in the assay on M14 melanoma; greater than 100 µM in the assay with MOLT-4 leukemia; 98.1 µM in the assay with NCI-H23 lung; greater than 100 µM with NCI-H460 lung; greater than 100 µM in the assay on OVCAR-4 ovarian; greater than 100 µM in the assay on OVCAR-5 ovarian. Besides, the TGI is greater than 100 µM with SF-268 CNS; greater than 100 µM in the assay on SF-295 CNS; 75.2 µM with SK-MEL-2 melanoma; greater than 100 µM in the assay on SK-MEL-5 melanoma; greater than 100 µM in the assay with SK-OV-3 ovarian; greater than 100 µM in the assay with SN12C renal. Moreover, the TGI is 36.2 µM in the assay with U251 CNS and greater than 100 µM in the assay with UO-31 renal.
In the case of `COC(=O)C1=C(OC(=O)/C=C/c2ccc(Cl)cc2)C(C(=O)OC)[C@@]2(O)[C@@H](C(=O)OC)[C@H](C)C[C@@H]1[C@@H]2C(=O)OC` (stereo partly drawn), the TGI in the assay with A549 NSCLC was greater than 100 µM; in the assay on COLO 205 colon, 40.7 µM; in the assay on HCT-15 colon, 57 µM; in the assay on HT29 colon, 65.8 µM; with M14 melanoma, greater than 100 µM; with MOLT-4 leukemia, 96.4 µM. In addition, the TGI with NCI-H23 lung was 46 µM; with NCI-H460 lung, greater than 100 µM; with OVCAR-4 ovarian it was greater than 100 µM; with OVCAR-5 ovarian it was 81.7 µM; with SF-268 CNS, 42.9 µM; with SF-295 CNS, greater than 100 µM. Moreover, the TGI with SK-MEL-2 melanoma was 37 µM; with SK-MEL-5 melanoma it was 32.2 µM; with SK-OV-3 ovarian, greater than 100 µM; with SN12C renal, 45.7 µM; with U251 CNS, greater than 100 µM; with UO-31 renal it was 57.1 µM.
Take `COC1(O)c2cccc(Cl)c2C(=O)N1C1(C(N)=O)CCCCC1` (stereo not drawn): the TGI in the assay with A498 renal is greater than 100 µM; with A549 NSCLC, greater than 100 µM; in the assay with COLO 205 colon it was greater than 100 µM; in the assay with HCT-15 colon, greater than 100 µM; with HT29 colon, greater than 58 µM; in the assay on KM20L2 colon, greater than 100 µM. In addition, the TGI is greater than 100 µM in the assay on MOLT-4 leukemia; greater than 53.1 µM in the assay on NCI-H23 lung; greater than 100 µM with NCI-H460 lung; greater than 100 µM with OVCAR-4 ovarian; greater than 100 µM in the assay with OVCAR-5 ovarian; greater than 100 µM in the assay with SF-268 CNS. Also, the TGI in the assay on SF-295 CNS, with SK-MEL-2 melanoma, in the assay with SK-MEL-5 melanoma, with SK-OV-3 ovarian, with SN12C renal and with U251 CNS was greater than 100 µM throughout. This compound had a TGI in the assay on UO-31 renal greater than 100 µM.
For the compound `O=C(O)C12CCCCC1CCCC2` (stereo not drawn), the TGI with A498 renal, in the assay on A549 NSCLC, in the assay with COLO 205 colon, in the assay on HCT-15 colon, in the assay with HT29 colon and with KM20L2 colon was greater than 100 µM each time. Further, the TGI in the assay with M14 melanoma, with MOLT-4 leukemia, in the assay with NCI-H23 lung, in the assay with NCI-H460 lung, with OVCAR-4 ovarian and with OVCAR-5 ovarian was greater than 100 µM each time. Also, the TGI in the assay with SF-268 CNS, with SF-295 CNS, in the assay on SK-MEL-5 melanoma, with SK-OV-3 ovarian, in the assay on SN12C renal and in the assay on U251 CNS was greater than 100 µM in each case.
As for `NC12CCC(CC1=O)C2` (stereo not drawn), the TGI in the assay with A549 NSCLC, with COLO 205 colon, with HCT-15 colon, in the assay with HT29 colon, in the assay with M14 melanoma and with MOLT-4 leukemia was greater than 100 µM throughout. In addition, the TGI with NCI-H23 lung, in the assay with OVCAR-4 ovarian, with OVCAR-5 ovarian, with SF-268 CNS, in the assay with SF-295 CNS and with SK-MEL-2 melanoma was greater than 100 µM each time. Also, the TGI in the assay on SK-MEL-5 melanoma, in the assay with SK-OV-3 ovarian, in the assay with SN12C renal, in the assay on U251 CNS and in the assay on UO-31 renal was greater than 100 µM throughout.
In the case of `O=C1C=CC(=O)c2c1ccc1c3ccccc3n(-c3ccccc3[N+](=O)[O-])c21`, the TGI with A498 renal was 35.6 µM; in the assay with A549 NSCLC it was greater than 64.8 µM; with COLO 205 colon it was 4.35 µM; in the assay with HCT-15 colon, 9 µM; in the assay with HT29 colon, greater than 74.1 µM; in the assay on M14 melanoma, 4.58 µM. The TGI in the assay on MOLT-4 leukemia is greater than 100 µM; in the assay with NCI-H23 lung, 19.4 µM; in the assay with NCI-H460 lung, greater than 100 µM; with OVCAR-4 ovarian, 10.2 µM; with OVCAR-5 ovarian it was 37.5 µM; in the assay on SF-268 CNS, 6.82 µM. For the same compound, the TGI in the assay on SF-295 CNS is greater than 56.7 µM; in the assay with SK-MEL-2 melanoma, 31.6 µM; in the assay with SK-MEL-5 melanoma, 21.2 µM; in the assay with SK-OV-3 ovarian, 33 µM; in the assay on SN12C renal, greater than 71.5 µM; in the assay with U251 CNS, 21.2 µM. Further, the TGI in the assay on UO-31 renal is 2.87 µM.
For `COc1cc2c(cc1OC)C(=O)/C(=C/c1cc(OC)c(OC)c(OC)c1)C2`, the TGI in the assay with A498 renal, in the assay on COLO 205 colon, in the assay with HCT-15 colon, in the assay on HT29 colon, with M14 melanoma and in the assay with MOLT-4 leukemia was greater than 100 µM each time. Also, the TGI with NCI-H23 lung, in the assay with NCI-H460 lung, in the assay on OVCAR-4 ovarian, in the assay on OVCAR-5 ovarian, in the assay with SF-295 CNS and in the assay with SK-MEL-2 melanoma was greater than 100 µM throughout. For the same compound, the TGI in the assay on SK-MEL-5 melanoma, in the assay on SK-OV-3 ovarian, with SN12C renal, in the assay with U251 CNS and in the assay with UO-31 renal was greater than 100 µM in each case.

Source of the values: PubChem BioAssay (NCI).
